According to patent US10604473B2, “Lipids that increase insulin sensitivity and methods of using the same” (Beth Israel Deaconess Medical Center, Inc., priority 2013, dated 2020):
Blank lines part the entries; values can stand above or below the molecule they belong to.

Legend:
3T3-L1 adipocytes = experiment: Glucose transport in 3T3-L1 adipocytes; format: cell-based; conditions: chronic treatment
Method: FIGS. 54A-D show glucose uptake regulation by PAHSAs and Glut4 translocation via GPR120. FIG. 54A is a bar graph showing insulin-stimulated glucose transport in 3T3-L1 adipocytes treated 9-PAHSA (20 μM) or vehicle (DMSO) control for 6 days. n=6 per group, *p<0.05 compared to vehicle by t-test. FIG. 54B is a bar graph showing insulin (10 nM)-stimulated glucose transport in 3T3-L1 adipocytes transfected with control siRNA or GPR120 siRNA and treated 5-PAHSA (10 μM), 9-PAHSA (10 μM) or vehicle (DMSO) control for 2 days. n=3 per group, *p<0.05 compared to DMSO+control siRNA or GPR120 siRNA alone, $p<0.05 compared to control siRNA or GPR120 siRNA+insulin and GPR120 siRNA+insulin+PAHSA by t-test. FIG. 54C is a panel showing Glut4 plasma membrane translocation in 3T3-L1 adipocytes transfected with control siRNA or GPR120 siRNA and treated with 9-PAHSA in the presence or absence of insulin. 6 separate experiments were carried out without RNAi and 3 experiments with RNAi; each experiment had greater than 50 cells per experimental condition. FIG. 54D is a bar graph showing quantification of Glut4 translocation in panel C. *p<0.05 compared to control siRNA+insulin and GPR120 siRNA+insulin+9-PAHSA by t-test. All data are presented as mean±s.e.m. See also FIG. 57.
For all cell culture experiments, FAHFAs were solubilized in DMSO at a concentration of 20 mM and further diluted in assay buffer or cell culture media to the working concentrations indicated for each assay. In all instances an equivalent volume of vehicle (DMSO) was added to control treatment groups.

[1] = FAHFA biosynthesis (FA-CoA:HFA acyltransferase) assay in tissue lysates; format: biochemical; conditions: 9-HSA and oleoyl-CoA 10 μM, increasing doses of inhibitor
Method: After first establishing that FA-CoA:HFA acyltransferase activity was membrane-localized in liver (not shown), membrane fractions from liver or WAT tissue lysate were isolated by ultracentrifugation, then resuspended the pellets in PBS buffer and diluted to 1 mg/ml protein concentration. […] Formation of 9-OAHSA was measured by MS/MS, with which the appearance of the parent ion m/z 563 was monitored.
In light of the above results acyltransferase families that have been reported to have a membrane-bound localization and to have the ability to conjugate FA-CoA to a hydrophobic alcohol were targeted. Two of the enzymes, DGAT1 and ACAT, had selective inhibitors that were commercially available, A922500 [20] and CI976 [21], which were used to test their ability to reduce FAHFA production in the biosynthesis assay (inhibitors purchased from Tocris Bioscience).

STC-1 cells [2] = experiment: ERK phosphorylation in STC-1 cells (immunoblot); format: cell-based; conditions: 15 minutes stimulation
Method: For the experiments summarized in FIG. 40, STC-1 cells were incubated with 9-PAHSA, 5-PAHSA or 9-OAHSA at the indicated concentrations. Cells were harvested and lysed and proteins were separated by SDS PAGE and transferred onto nitrocellulose filters. The phosphorylation of ERK and the amount of total ERK was determined by immunoblotting with antibodies specific for total or phosphor-ERK. DMSO was the control. For ERK phosphorylation, cells were serum deprived overnight and stimulated with FAHFAs or vehicle as indicated for 15 minutes followed by lysis in RIPA buffer and analysis by SDS-PAGE

STC-1 cells [3] = experiment: GLP-1 secretion from STC-1 enteroendocrine cells (ELISA); format: cell-based
Method: For the experiments summarized in FIG. 41 STC-1 cells were incubated with vehicle (DMSO), 9-PAHSA, 5-PAHSA or 9-OAHSA at the indicated concentrations or lineolic acid (100 uM) as a positive control. Media was harvested and GLP-1 was measured by ELISA.
For the experiments summarized in FIG. 42, the same protocol as described for FIG. 41 was used, except in this experiment a time course was performed. For both FIG. 41 and FIG. 42, for GLP-1 secretion STC1 cells were washed 3× with serum free culture media followed by stimulation with FAHFAs or vehicle at the indicated concentrations and timepoints. Levels of active GLP-1 were measured by ELISA.

[4] = system: carboxyl ester lipase (CEL); experiment: FAHFA hydrolysis assay, CEL-transfected HEK293T cell lysate; format: biochemical
[5] = FAHFA hydrolysis assay, pancreas membrane lysate; format: biochemical
[6] = FAHFA hydrolysis assay (9-PAHSA to 9-HSA), liver lysate

SMILES: CCCCCCCCCCCCCCCC(=O)O [palmitic acid]
insulin-stimulated glucose transport (3T3-L1 adipocytes): impaired insulin-stimulated glucose transport

9-OAHSA levels (FAHFA production) [1]: no change in 9-OAHSA levels
SMILES: CCCCCCCCCCC(C)(C)C(=O)Nc1c(OC)cc(OC)cc1OC [CI976]

SMILES: CCCCCCCCC(O)CCCCCCCCC(=O)O (stereo not drawn) [hydroxystearic acid]
insulin-stimulated glucose transport (3T3-L1 adipocytes): impaired insulin-stimulated glucose transport

SMILES: CCCCCCCC/C=C\CCCCCCCC(=O)OC(CCCCCCCCC)CCCCCCCC(=O)O (stereo not drawn) [9-OAHSA]
ERK phosphorylation (STC-1 cells [2]): induce ERK phosphorylation
GLP-1 secretion (STC-1 cells [3]): induce GLP-1 secretion

9-OAHSA levels (FAHFA production) [1]: no change in 9-OAHSA levels
SMILES: O=C(Nc1ccccc1)Nc1ccc(-c2ccc(C(=O)[C@@H]3CCC[C@H]3C(=O)O)cc2)cc1 [A922500]

SMILES: C[C@H](CCC(=O)NCCS(=O)(=O)O)[C@H]1CC[C@H]2[C@@H]3[C@H](O)C[C@@H]4C[C@H](O)CC[C@]4(C)[C@H]3C[C@H](O)[C@]12C [NaTC, sodium taurocholate]
bile-salt activation of FAHFA hydrolysis [4]: enhanced
bile-salt activation of FAHFA hydrolysis [5]: markedly increased
bile-salt activation of FAHFA hydrolysis [6]: not enhanced
